≈ marks a conversion by molar mass, not a printed value. Where two headings read alike, the source gives them in different places.
How the values were obtained:
[1] = tested on: CPA-resistant human sarcoma cells (OS31 osteosarcoma); details: mice with xenografts of CPA-resistant human sarcoma cells
Description: CB17 female scid*/* mice (Taconic Farms, Germantown, N.Y.) were implanted with tumor subcutaneous flank tumors. […] For transplantation with OS1 tumor, mice were anesthetized with 4% isoflurane. After a small incision was made in the flank of the mouse, and a 4 mm by 4 mm section of tumor implanted subcutaneously.
When the tumors were approximately 0.20 to 0.7 cm in diameter, tumor-bearing mice were randomized into groups of 5 to 8 mice with 1 treatment group and 1 control group. Treated mice received tasidotin at a dose of 90 mg/kg/day as an intraperitoneal injection daily for 5 days starting on days 1 and 21. Assuming a spherical tumor, the volume was determined by the formula: mm^3=*/6(D)d^2, where D is the maximal diameter and d is the diameter perpendicular to D. Volumes are expressed as relative tumor volumes (RTV) where the tumor volume at any given time point is divided by the starting tumor volume. The RTV for treated and control mice were measured a minimum of once per week.
A partial response is defined as greater than 50% regression in tumor volume (RTV<0.5) but with a measurable tumor mass of greater than 0.10 cm^3. Loss of measurable tumor mass (<0.10 cm^3) at any point during the treatment period (6 weeks) was defined as a complete response (CR). […]

[2] = Solubility and reconstitution time (Example 16); type: physicochemical
[3] = type: physicochemical; details: pH 7 buffer, approximately 25° C.
[4] = type: physicochemical; details: temperature and duration of storage
[5] = tested on: MX-1 human mammary tumor; assay: MX-1 human mammary tumor xenograft (Example 8)
Description: Animal Care: Five-weeks-old female athymic NCr-nu/nu mice were purchased from Harlan (Prattville, Ala.).
Tumor Model: Thirty-to-forty mg fragments of MX-1 human mammary tumor maintained in an in vivo passage were implanted sc in mice in the mammary fat pad using a 12-gauge trocar needle and allowed to grow. The day of tumor implantation was designated as day 0. […] A sufficient number of mice were implanted so that tumors in a weight range as narrow as possible were selected for the trial on the day of treatment initiation (day 6 after tumor implantation). Those animals selected with tumors in the proper size range were assigned to the various treatment groups so that the median tumor weights on the first day of treatment were as close to each other as possible (144-162 mg).
All dosing solutions were kept on ice after formulation and were administered within 30 min. All injections were administered on the basis of exact body weight with the injection volume being 0.2 mL/10 g body weight.
Drug Treatment: The experiment consisted of 16 treatment groups of eight mice per group and two vehicle-treated control groups with ten mice each for a total of 148 mice on the first day of treatment. All agents (and vehicle) were administered daily for five consecutive days (q1d×5). […] The control groups were treated either ip (group no. 1) or po (group no. 10) with the vehicle (saline).
Tumor Measurements and Body Weights: The sc tumors were measured and the animals were weighed twice weekly starting with the first day of treatment. Tumor volume was determined by caliper measurements (mm) and using the formula for an ellipsoid sphere: L×W^2/2=mm^3, where L and W refer to the larger and smaller perpendicular dimensions collected at each measurement. This formula is also used to calculate tumor weight, assuming unit density (1 mm^3=1 mg.).
Study Duration: The study was terminated 52 days after tumor implantation. Any animal that became moribund or whose tumor became ulcerated and reached 4,000 mg was euthanized prior to study termination.
Parameters Evaluated: Number of nonspecific deaths, number of partial and complete tumor regressions, number of tumor-free survivors, and the individual animals' times to reach two tumor mass doublings were determined. The median time to reach two tumor mass doubling in the treatment groups (T) and control group (C) was used in the calculation of the overall delay in the growth of the median tumor (T-C).
Statistical Analysis: The individual animal's time to reach two tumor mass doublings was used as the endpoint in a Student's t-test/Mann Whitney rank sum test in order to compare statistically the growth data between groups.

[6] = pH (Example 16); type: physicochemical
[7] = tested on: MX-1 human mammary tumors; assay: MX-1 human mammary tumor xenograft (Example 7); type: in vivo, athymic NCr-nu/nu mice
Protocol: Each concentration was then aliquoted for daily use, frozen, stored at −20° C., and thawed for daily use.
The control groups were treated either ip or po with the vehicle (saline).
Study Duration: The study was terminated 50 days after tumor implantation.

Question: Which “effect of therapy on sarcoma growth” value [1] does the source give for `O=P1(N(CCCl)CCCl)NCCCO1` (stereo not drawn) [CPA, cyclophosphamide] here?
Answer: no effect

Question: Which results are given for `O=P(O)(NCCCl)NCCCl` [IPM, isophosphoramide mustard]?
Answer: Solubility at 25° C. (saline) [2]: 14 mg/mL (≈ 63.3 mM); % Purity ([3]; 0.5 hours): 89.5%; % Purity ([3]; 1.0 hours): 80.3%; % Purity ([3]; 2.0 hours): 64.8%; % Purity ([3]; 3.0 hours): 52.1%; % Purity ([3]; reconstitution time 0 hours): 100.00%; Current Stability Data Summary: No change in purity at [4]: −70° C., 2 years; maximum loss in mean body weight ([5]; ip q1d×5, 24 mg/kg/dose): 2%; tumor growth delay (T-C) ([5]; ip q1d×5, 24 mg/kg/dose): 0.3 days; maximum loss in mean body weight ([5]; ip q1d×5, 36 mg/kg/dose): 8%; maximum loss in mean body weight ([5]; po q1d×5, 81 mg/kg/dose): 9%; tumor growth delay (T-C) ([5]; po q1d×5, 81 mg/kg/dose): 2.3 days; maximum loss in mean body weight ([5]; po q1d×5, 120 mg/kg/dose): 18%; tolerability ([5]; po q1d×5, 120 mg/kg/dose): toxic; deaths ([5]; po q1d×5, 120 mg/kg/dose, eight mice per group): two deaths; pH [6]: 3.02; maximum loss in mean body weight ([7]; ip q1d×5, 24 mg/kg/dose): 5%; tumor growth delay (T-C) ([7]; ip q1d×5, 24 mg/kg/dose): 2.6 days; maximum loss in mean body weight ([7]; ip q1d×5, 36 mg/kg/dose): 0%; maximum loss in mean body weight ([7]; po q1d×5, 81 mg/kg/dose): 5%; tumor growth delay (T-C) ([7]; po q1d×5, 81 mg/kg/dose): 4.0 days; maximum loss in mean body weight ([7]; po q1d×5, 120 mg/kg/dose): 5%; tumor growth delay (T-C) ([7]; po q1d×5, 120 mg/kg/dose): 4.6 days

— US9340563B2, “Salts of isophosphoramide mustard and analogs thereof” (priority 2007, dated 2016)
